The test system of series [1] is PC-12. The experiment in a line: Cytotoxicity against […] cells at 10 uM after 24 hrs by MTT assay. Format: cell-based. To be noted: rat, pc-12, 24 h.
The subject of series [2] is PC-12. Kind of series: Neuroprotective activity against Abeta25-35-induced […] cells assessed as cell viability at 10 uM preincubated for 2 hrs prior Abeta25-35 challenge measured after 24 hrs by MTT assay. Format: functional. To be noted: Rattus norvegicus; for viability at 10 µM: read-out: Activity. A general note: Tetrazolium assays rely on reduction of a dye to a coloured formazan, in cell work by metabolically active cells.

Series [3] deals with PC-12. Kind of series: Neuroprotective activity against Abeta25-35-induced […] cells assessed as cell viability at 1 uM preincubated for 2 hrs prior Abeta25-35 challenge measured after 24 hrs by MTT assay. Format: functional. To be noted: Rattus norvegicus; for viability at 1 µM: read-out: Activity.
Series [4] concerns PC-12. The experiment in a line: Cytotoxicity against […] cells at 1 uM after 24 hrs by MTT assay. Format: cell-based. The conditions noted are these: rat, pc-12, 24 h.
A short description of series [5]: Solubility of the compound at 10 uM. Format: physicochemical.
The nature of series [6]: Solubility of the compound at 1 uM. Format: physicochemical.

Structures are written as SMILES. The source made the active and inactive calls. The rule behind the calls is not given here.

For the molecule `CC(C)c1ccc(/C=C/C(=O)[C@H]2CC[C@H]3[C@@H]4CC=C5C[C@@H](O)CC[C@]5(C)[C@H]4CC[C@]23C)cc1`, in the series on PC-12 [1], the Activity result is “Toxic”. Besides, the viability at 10 µM in the series with PC-12 [2] came to 34.9%. The outcome in the series on PC-12 [3] was inactive.
As for `C[C@]12CC[C@H]3[C@@H](C[C@@H]4O[C@@]45C[C@@H](O)CC[C@]35C)[C@@H]1CC[C@@H]2C(=O)/C=C/c1ccccc1`, the viability at 10 µM in the series with PC-12 [2] worked out at 70.5%. Also, the viability at 1 µM in the series with PC-12 [3] was 64.8%.
On to `C[C@]12CC[C@H]3[C@@H](C[C@@H]4O[C@@]45C[C@@H](O)CC[C@]35C)[C@@H]1CC[C@@H]2C(=O)/C=C/c1ccccc1F`, for which the Activity entry with PC-12 [1] was “Toxic”. In the series with PC-12 [2], the viability at 10 µM was determined as 36.7%. The outcome with PC-12 [3] was inactive.
With `CC(=O)[C@H]1CC[C@H]2[C@@H]3C[C@@H]4O[C@@]45C[C@@H](O)CC[C@]5(C)[C@H]3CC[C@]12C`, the outcome in the series on PC-12 [2] and in the series on PC-12 [3] was inactive.
For `C[C@]12CC[C@H]3[C@@H](CC=C4C[C@@H](O)CC[C@@]43C)[C@@H]1CC[C@@H]2C(=O)/C=C/c1ccc(Cl)cc1Cl`, the Activity result in the series on PC-12 [1] is on record as “Toxic”. In addition, the viability at 10 µM in the series on PC-12 [2] stood at 34.5%. For the same molecule, the result in the series with PC-12 [3] was inactive.
In the same order, the values of `C[C@]12CC[C@H]3[C@@H](C[C@@H]4O[C@@]45C[C@@H](O)CC[C@]35C)[C@@H]1CC[C@@H]2C(=O)/C=C/c1ccc(Cl)cc1Cl` are “Toxic”, 6% and “inactive”.
In the case of `C[C@]12CC[C@H]3[C@@H](CC=C4C[C@@H](O)CC[C@@]43C)[C@@H]1CC[C@@H]2C(=O)/C=C/c1ccccc1F`, the Activity entry with PC-12 [1] and in the series with PC-12 [4] was “Toxic” throughout. Also, the viability at 10 µM in the series with PC-12 [2] worked out at 38.3%. For the same molecule, the viability at 1 µM with PC-12 [3] came to 53.1%.
Turning to `C[C@]12CC[C@H]3[C@@H](CC=C4C[C@@H](O)CC[C@@]43C)[C@@H]1CC[C@@H]2C(=O)/C=C/c1ccc(C#N)cc1`, the solubility result in series [5] and in series [6] was “Insoluble” throughout.
For the molecule `CC(C)c1ccc(/C=C/C(=O)[C@H]2CC[C@H]3[C@@H]4C[C@@H]5O[C@@]56C[C@@H](O)CC[C@]6(C)[C@H]4CC[C@]23C)cc1`, in the series with PC-12 [1], the Activity result is listed as “Toxic”. Also, in the series with PC-12 [2], the viability at 10 µM is 49.8%. In the series on PC-12 [3], the outcome was inactive.
Take `C[C@]12CC[C@H]3[C@@H](C[C@@H]4O[C@@]45C[C@@H](O)CC[C@]35C)[C@@H]1CC[C@@H]2C(=O)/C=C/c1ccco1`: in the series on PC-12 [2], the viability at 10 µM came to 82.7%. For the same molecule, in the series on PC-12 [3], the result was inactive.
For `CCOc1ccc(/C=C/C(=O)[C@H]2CC[C@H]3[C@@H]4C[C@@H]5O[C@@]56C[C@@H](O)CC[C@]6(C)[C@H]4CC[C@]23C)cc1OC`, the result with PC-12 [2] was inactive. For the same molecule, the viability at 1 µM with PC-12 [3] stood at 61.1%.
Turning to `C[C@]12CC[C@H]3[C@@H](C[C@@H]4O[C@@]45C[C@@H](O)CC[C@]35C)[C@@H]1CC[C@@H]2C(=O)/C=C/c1ccc(F)cc1`, the Activity entry with PC-12 [1] is reported as “Toxic”. Besides, in the series on PC-12 [2], the viability at 10 µM came to 47.6%. In addition, the result in the series on PC-12 [3] was inactive.
With `C[C@]12CC[C@H]3[C@@H](C[C@@H]4O[C@@]45C[C@@H](O)CC[C@]35C)[C@@H]1CC[C@@H]2C(=O)/C=C/c1ccccn1`, in the series with PC-12 [1], the Activity entry is given as “Toxic”. For the same molecule, the viability at 10 µM with PC-12 [2] turned out to be 29.7%. For the same molecule, in the series on PC-12 [3], the result was inactive.
In the same order, the values of `COc1ccc(/C=C/C(=O)[C@H]2CC[C@H]3[C@@H]4CC=C5C[C@@H](O)CC[C@]5(C)[C@H]4CC[C@]23C)cc1` are “Toxic”, 25.7% and “inactive”.
Regarding `CC(=O)[C@H]1CC[C@H]2[C@@H]3CC=C4C[C@@H](O)CC[C@]4(C)[C@H]3CC[C@]12C`, the result in the series on PC-12 [2] and in the series with PC-12 [3] was inactive.
Take `C[C@]12CC[C@H]3[C@@H](CC=C4C[C@@H](O)CC[C@@]43C)[C@@H]1CC[C@@H]2C(=O)/C=C/c1ccccc1`: in the series with PC-12 [1], the Activity entry is “Toxic”. Further, in the series on PC-12 [2], the viability at 10 µM is 29%. The result in the series with PC-12 [3] was inactive.
Consider `C[C@]12CC[C@H]3[C@@H](C[C@@H]4O[C@@]45C[C@@H](O)CC[C@]35C)[C@@H]1CC[C@@H]2C(=O)/C=C/c1ccc(C#N)cc1`, for which the outcome in the series with PC-12 [2] and in the series with PC-12 [3] was inactive.
On to `C[C@]12CC[C@H]3[C@@H](C[C@@H]4O[C@@]45C[C@@H](O)CC[C@]35C)[C@@H]1CC[C@@H]2C(=O)/C=C/c1ccc(Cl)cc1`, for which the Activity result in the series on PC-12 [1] is listed as “Toxic”. The viability at 10 µM in the series with PC-12 [2] was 39.1%. Besides, in the series on PC-12 [3], the result was inactive.
For `C[C@]12CC[C@H]3[C@@H](C[C@@H]4O[C@@]45C[C@@H](O)CC[C@]35C)[C@@H]1CC[C@@H]2C(=O)/C=C/c1cccc([N+](=O)[O-])c1` the same measures were “Toxic”, 31.3% and “inactive”.
As for `C[C@]12CC[C@H]3[C@@H](C[C@@H]4O[C@@]45C[C@@H](O)CC[C@]35C)[C@@H]1CC[C@@H]2C(=O)/C=C/c1ccc(Br)cc1`, the Activity result with PC-12 [1] and in the series on PC-12 [4] was “Toxic” throughout. Besides, the viability at 10 µM with PC-12 [2] was 32.5%. Besides, the viability at 1 µM in the series on PC-12 [3] worked out at 50.1%.
On to `C[C@]12CC[C@H]3[C@@H](CC=C4C[C@@H](O)CC[C@@]43C)[C@@H]1CC[C@@H]2C(=O)/C=C/c1ccc(F)cc1`, for which the Activity entry in the series on PC-12 [1] is reported as “Toxic”. For the same molecule, the viability at 10 µM in the series on PC-12 [2] was 32.6%. In the series on PC-12 [3], the outcome was inactive.
With `C[C@]12CC[C@H]3[C@@H](CC=C4C[C@@H](O)CC[C@@]43C)[C@@H]1CC[C@@H]2C(=O)/C=C/c1ccc(Cl)cc1`, the solubility result in series [5] and in series [6] was “Insoluble” each time.
Regarding `C[C@]12CC[C@H]3[C@@H](C[C@@H]4O[C@@]45C[C@@H](O)CC[C@]35C)[C@@H]1CC[C@@H]2C(=O)/C=C/c1ccccc1Br`, in the series with PC-12 [2], the viability at 10 µM amounted to 61.2%. The outcome with PC-12 [3] was inactive.
In the case of `CCOc1ccccc1/C=C/C(=O)[C@H]1CC[C@H]2[C@@H]3CC=C4C[C@@H](O)CC[C@]4(C)[C@H]3CC[C@]12C`, the outcome with PC-12 [2] and in the series on PC-12 [3] was inactive.
Consider `C[C@]12CC[C@H]3[C@@H](CC=C4C[C@@H](O)CC[C@@]43C)[C@@H]1CC[C@@H]2C(=O)/C=C/c1ccco1`, for which the Activity result in the series on PC-12 [1] and in the series with PC-12 [4] was “Toxic” throughout. Further, in the series with PC-12 [2], the viability at 10 µM came out at 36.9%. In the series on PC-12 [3], the viability at 1 µM is 52.5%.
As for `CCOc1ccc(/C=C/C(=O)[C@H]2CC[C@H]3[C@@H]4CC=C5C[C@@H](O)CC[C@]5(C)[C@H]4CC[C@]23C)cc1OC`, the Activity entry with PC-12 [1] is “Toxic”. Moreover, in the series with PC-12 [2], the viability at 10 µM turned out to be 26.7%. Moreover, the outcome in the series with PC-12 [3] was inactive.
Regarding `C[C@]12CC[C@H]3[C@@H](CC=C4C[C@@H](O)CC[C@@]43C)[C@@H]1CC[C@@H]2C(=O)/C=C/c1cccc([N+](=O)[O-])c1`, the Activity entry in the series on PC-12 [1] and in the series with PC-12 [4] was “Toxic” throughout. The viability at 10 µM with PC-12 [2] turned out to be 37.8%. Besides, the viability at 1 µM in the series with PC-12 [3] was 51.2%.
For `COc1cccc(/C=C/C(=O)[C@H]2CC[C@H]3[C@@H]4CC=C5C[C@@H](O)CC[C@]5(C)[C@H]4CC[C@]23C)c1`, the Activity entry in the series on PC-12 [1] and in the series with PC-12 [4] was “Toxic” each time. The viability at 10 µM with PC-12 [2] was 44%. Moreover, the viability at 1 µM in the series on PC-12 [3] turned out to be 50.3%.
With `COc1ccc(/C=C/C(=O)[C@H]2CC[C@H]3[C@@H]4C[C@@H]5O[C@@]56C[C@@H](O)CC[C@]6(C)[C@H]4CC[C@]23C)cc1`, in the series with PC-12 [1], the Activity entry is “Toxic”. For the same molecule, the viability at 10 µM in the series on PC-12 [2] stood at 29.6%. In the series on PC-12 [3], the result was inactive.
Consider `C[C@]12CC[C@H]3[C@@H](CC=C4C[C@@H](O)CC[C@@]43C)[C@@H]1CC[C@@H]2C(=O)/C=C/c1ccccn1`, for which the outcome in the series on PC-12 [2] and in the series with PC-12 [3] was inactive.
Turning to `COc1cccc(/C=C/C(=O)[C@H]2CC[C@H]3[C@@H]4C[C@@H]5O[C@@]56C[C@@H](O)CC[C@]6(C)[C@H]4CC[C@]23C)c1`, the result in the series with PC-12 [2] and in the series on PC-12 [3] was inactive.
With `C[C@]12CC[C@H]3[C@@H](C[C@@H]4O[C@@]45C[C@@H](O)CC[C@]35C)[C@@H]1CC[C@@H]2C(=O)/C=C/c1ccccc1C(F)(F)F`, the outcome in the series with PC-12 [2] and in the series with PC-12 [3] was inactive.
Take `Cc1ccccc1/C=C/C(=O)[C@H]1CC[C@H]2[C@@H]3C[C@@H]4O[C@@]45C[C@@H](O)CC[C@]5(C)[C@H]3CC[C@]12C`: in the series on PC-12 [1], the Activity result is “Toxic”. The viability at 10 µM in the series with PC-12 [2] was 49.9%. Also, in the series on PC-12 [3], the outcome was inactive.
As for `C[C@]12CC[C@H]3[C@@H](CC=C4C[C@@H](O)CC[C@@]43C)[C@@H]1CC[C@@H]2C(=O)/C=C/c1ccccc1C(F)(F)F`, the result in the series with PC-12 [2] and in the series on PC-12 [3] was inactive.
Consider `C[C@]12CC[C@H]3[C@@H](CC=C4C[C@@H](O)CC[C@@]43C)[C@@H]1CC[C@@H]2C(=O)/C=C/c1ccccc1Br`, for which the outcome with PC-12 [2] and in the series with PC-12 [3] was inactive.
For `O=C(O[C@@H]1Cc2c(O)cc(O)cc2O[C@@H]1c1cc(O)c(O)c(O)c1)c1cc(O)c(O)c(O)c1` [EPIGALOCATECHIN GALLATE], the viability at 10 µM in the series on PC-12 [2] is 65.4%.
